The record followed here is ChEMBL document CHEMBL1201862, “PubChem BioAssay data set” (2004).

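Assay format: 96-well plates, 48-hour exposure. At the GI50, growth is halved.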 Active and inactive are the calls of the source. Cut-off read from the data, not from the text of the source: active = GI50 up to about 1.1 µM and inactive = higher.

Among the test systems are HCT-116; SNB-75; UACC-257; OVCAR-5; SN12C; SF-539; OVCAR-3; IGROV-1; U-251; HCT-15; CCRF-CEM; SK-OV-3; UO-31; RPMI-8226; A498; SK-MEL-28; HT-29; HCC 2998; UACC-62; Hs-578T.
Holding throughout (assay): NCI tumour cell line growth inhibition, 48 h

Consider `CN1c2ccc(Cl)cc2C(=O)NC1c1ccc([N+](=O)[O-])s1` (stereo not given), for which the GI50 in the assay on HCT-116 was 15.2 µM (inactive); in the assay on SNB-75, 12 µM (inactive); in the assay on UACC-257, 15.1 µM (inactive); in the assay on OVCAR-5, 20.2 µM (inactive); with SN12C, 16.6 µM (inactive); in the assay with SF-539, 18.1 µM (inactive). Further, the GI50 is 15.5 µM (inactive) with OVCAR-3; 15.4 µM (inactive) in the assay with IGROV-1; 16.4 µM (inactive) in the assay on U-251; 12.7 µM in the assay with HCT-15; 39.5 µM (inactive) in the assay with CCRF-CEM; 20.2 µM (inactive) with SK-OV-3. For the same compound, the GI50 was 12.1 µM (inactive) in the assay with UO-31; 6.19 µM (inactive) in the assay with RPMI-8226; 14.8 µM (inactive) in the assay with A498; 18.7 µM (inactive) with SK-MEL-28; 18.9 µM (inactive) in the assay on HT-29; 16.1 µM (inactive) in the assay with HCC 2998. Moreover, the GI50 in the assay with UACC-62 was 11.4 µM (inactive); in the assay with Hs-578T, 17.3 µM (inactive).

`C[C@@H](Cl)[C@H]1CCCN(Cc2ccc(Br)cc2)C1`: the GI50 in the assay with SNB-75, with UACC-257, with OVCAR-5, with SF-539, with OVCAR-3 and in the assay on IGROV-1 was > 12.5 µM (inactive) in each case. For the same compound, the GI50 with U-251 was > 12.5 µM (inactive); in the assay on HCT-15 it was > 12.5 µM; in the assay on CCRF-CEM, > 12.5 µM (inactive); in the assay with SK-OV-3, > 12.5 µM (inactive); with UO-31, > 12.5 µM (inactive); with RPMI-8226 it was > 12.5 µM (inactive). The GI50 with A498, in the assay on SK-MEL-28, in the assay on HT-29, in the assay with HCC 2998, with UACC-62 and in the assay on Hs-578T was > 12.5 µM (inactive) in each case.

`O=C(NCCCl)N(O)C(=O)Nc1ccccc1`: the GI50 in the assay with HCT-116, with SNB-75, in the assay on UACC-257, in the assay on OVCAR-5, in the assay with SN12C and in the assay on SF-539 was > 100 µM (inactive) throughout. Moreover, the GI50 is > 100 µM (inactive) in the assay on OVCAR-3; > 100 µM (inactive) with IGROV-1; > 100 µM (inactive) in the assay on U-251; > 100 µM in the assay on HCT-15; > 100 µM (inactive) with CCRF-CEM; > 100 µM (inactive) in the assay with SK-OV-3. Besides, the GI50 in the assay with UO-31, in the assay on RPMI-8226, in the assay with A498, with HT-29, with HCC 2998 and in the assay on UACC-62 was > 100 µM (inactive) each time. The GI50 in the assay with Hs-578T was > 100 µM (inactive).

For `COc1ccccc1NC(=O)C(=O)Cc1cnc2ccccc2n1`, the GI50 with HCT-116 is > 100 µM (inactive); in the assay on SNB-75 it was 41 µM (inactive); in the assay on UACC-257 it was > 100 µM (inactive); in the assay on OVCAR-5, > 100 µM (inactive); in the assay on SN12C, > 100 µM (inactive); in the assay on SF-539, > 100 µM (inactive). Moreover, the GI50 with OVCAR-3 was > 100 µM (inactive); in the assay with U-251 it was > 100 µM (inactive); with HCT-15 it was > 100 µM; with CCRF-CEM it was > 100 µM (inactive); in the assay on SK-OV-3 it was > 100 µM (inactive); in the assay on UO-31 it was > 100 µM (inactive). Moreover, the GI50 with RPMI-8226, with A498, with SK-MEL-28, in the assay with HT-29, with HCC 2998 and in the assay with UACC-62 was > 100 µM (inactive) each time. For the same compound, in the assay on Hs-578T, the GI50 was > 100 µM (inactive).

As for `O=C(O)C(=Cc1ccc(-c2ccc([N+](=O)[O-])cc2)o1)C(=O)O`, the GI50 in the assay on HCT-116, in the assay on SNB-75, in the assay with UACC-257, in the assay with OVCAR-5, in the assay with SN12C and in the assay with SF-539 was > 100 µM (inactive) throughout. For the same compound, the GI50 was > 100 µM (inactive) with OVCAR-3; > 100 µM (inactive) with IGROV-1; > 100 µM (inactive) in the assay on U-251; > 100 µM in the assay on HCT-15; > 100 µM (inactive) in the assay with CCRF-CEM; > 100 µM (inactive) with SK-OV-3. For the same compound, the GI50 in the assay on UO-31, in the assay on RPMI-8226, in the assay with A498, in the assay on SK-MEL-28, in the assay on HT-29 and in the assay on HCC 2998 was > 100 µM (inactive) each time. Further, the GI50 in the assay on UACC-62 and in the assay on Hs-578T was > 100 µM (inactive) each time.

On to `S=C(N/N=C(\C(=N/NC(=S)N1CCCCC1)c1ccccn1)c1ccccn1)N1CCCCC1`, for which the GI50 with HCT-116 was 15.5 µM (inactive); in the assay on SNB-75, 56.1 µM (inactive); in the assay with UACC-257, 54.1 µM (inactive); in the assay on OVCAR-5 it was 51.2 µM (inactive); with SF-539, 35.4 µM (inactive); in the assay with OVCAR-3, 3.63 µM (inactive). The GI50 in the assay with IGROV-1 was 48.8 µM (inactive); in the assay on U-251 it was 32.7 µM (inactive); with HCT-15, 6.87 µM; in the assay with CCRF-CEM, 3.91 µM (inactive); in the assay with SK-OV-3, 29.1 µM (inactive); with UO-31 it was 19.2 µM (inactive). Moreover, the GI50 was 67.9 µM (inactive) with RPMI-8226; 32.7 µM (inactive) with A498; 21.1 µM (inactive) in the assay with SK-MEL-28; 61 µM (inactive) in the assay with HT-29; 26.3 µM (inactive) with HCC 2998; 26.5 µM (inactive) in the assay with UACC-62. Also, the GI50 with Hs-578T was 28.8 µM (inactive).

Consider `COc1cc(C(=O)N(C)N(C)C)cc(OC)c1OC`, for which the GI50 in the assay on HCT-116, in the assay with SNB-75, with UACC-257, in the assay on OVCAR-5, in the assay on SN12C and in the assay with SF-539 was > 10 µM (inactive) each time. The GI50 in the assay with OVCAR-3 is > 10 µM (inactive); with IGROV-1 it was > 10 µM (inactive); in the assay on U-251, > 10 µM (inactive); in the assay with HCT-15, > 10 µM; in the assay on CCRF-CEM it was > 10 µM (inactive); in the assay with SK-OV-3, > 10 µM (inactive). Moreover, the GI50 in the assay with UO-31, in the assay with RPMI-8226, with A498, in the assay with SK-MEL-28, with HT-29 and with HCC 2998 was > 10 µM (inactive) throughout. Also, the GI50 with UACC-62 and in the assay on Hs-578T was > 10 µM (inactive) each time.

In the case of `Cc1cc(Br)cc(C)c1NC(=O)C(=O)Nn1c(S)nc2ccccc2c1=O`, the GI50 with HCT-116, with SNB-75, in the assay on UACC-257, in the assay on OVCAR-5, in the assay on SN12C and in the assay with SF-539 was > 100 µM (inactive) throughout. In addition, the GI50 in the assay with OVCAR-3 is > 100 µM (inactive); with IGROV-1, > 100 µM (inactive); in the assay on U-251, > 100 µM (inactive); in the assay on HCT-15, > 100 µM; with CCRF-CEM, > 100 µM (inactive); with SK-OV-3 it was > 100 µM (inactive). Moreover, the GI50 in the assay with UO-31, in the assay with RPMI-8226, in the assay on A498, with SK-MEL-28, with HT-29 and with HCC 2998 was > 100 µM (inactive) throughout. Besides, the GI50 in the assay with UACC-62 and with Hs-578T was > 100 µM (inactive) throughout.

For `O=C1NC2(CCN(CCc3ccccc3)CC2)Oc2ccccc21`, the GI50 was 55.2 µM (inactive) in the assay with HCT-116; 36.9 µM (inactive) in the assay with SNB-75; 37.8 µM (inactive) in the assay with UACC-257; 44.2 µM (inactive) with OVCAR-5; 99.5 µM (inactive) with SN12C; > 100 µM (inactive) in the assay with SF-539. The GI50 with OVCAR-3 was 77.6 µM (inactive); in the assay on IGROV-1, > 100 µM (inactive); in the assay on U-251, 61.9 µM (inactive); in the assay on HCT-15, 46.3 µM; in the assay with CCRF-CEM, 49.3 µM (inactive); in the assay with SK-OV-3, > 100 µM (inactive). For the same compound, the GI50 in the assay on UO-31 is 49 µM (inactive); in the assay on RPMI-8226 it was 33.7 µM (inactive); with A498, 68.1 µM (inactive); in the assay with SK-MEL-28 it was 73.6 µM (inactive); in the assay with HT-29, 38 µM (inactive); in the assay on HCC 2998, 62.1 µM (inactive). Moreover, the values for the GI50 in the assay with UACC-62 and in the assay on Hs-578T were 46.6 µM (inactive) and 15.3 µM (inactive), respectively.

Consider `N#CC(C#N)=C(N)/C(C#N)=C/c1ccc2[nH]ccc2c1`, for which the GI50 in the assay on HCT-116 was > 100 µM (inactive); with SNB-75, 22.7 µM (inactive); in the assay on UACC-257, > 100 µM (inactive); with OVCAR-5 it was > 100 µM (inactive); with SN12C it was > 100 µM (inactive); with SF-539, > 100 µM (inactive). The GI50 in the assay on OVCAR-3 is > 100 µM (inactive); with IGROV-1 it was > 100 µM (inactive); in the assay on U-251, > 100 µM (inactive); in the assay with HCT-15, > 100 µM; in the assay with CCRF-CEM, > 100 µM (inactive); with SK-OV-3, > 100 µM (inactive). For the same compound, the GI50 in the assay on UO-31 was 14 µM (inactive); with RPMI-8226, > 100 µM (inactive); with A498, > 100 µM (inactive); in the assay with SK-MEL-28 it was > 100 µM (inactive); with HT-29, > 100 µM (inactive); with HCC 2998, > 100 µM (inactive). Further, the GI50 was > 84.9 µM (inactive) with UACC-62 and > 100 µM (inactive) in the assay with Hs-578T.
